Laboratory results from patent publication EP0950418A2, “Composition for preventing or treating ischemic disease” (Takeda Chemical Industries, Ltd., priority 1998, dated 1999).

Assays:
lethal arrhythmia = test: Lethal arrhythmia induced by coronary artery occlusion for 5 minutes with reperfusion; format: in vivo, Male Wistar rats
Procedure: Inhibitory effects of Compounds A and B on lethal arrhythmia were determined by the following method:
Male Wistar rats (10-week-old) were anaesthetized with pentobarbital and the chest was opened to expose the heart. Arrhythmia was induced by coronary artery occlusion for 5 minutes with reperfusion of the coronary blood flow. Ventricular arrhythmia observed during occlusion and for 5 minutes after reperfusion was recorded on Mac Lab through polygraph, and the II Lead electro-cardiogram was recorded. Ventricular tachycardia (VT) was counted when premature ventricular complex (PVC) continued more than 5 times. Each of the drugs was dissolved in saline and administered from the femoral vein 5 minutes before coronary artery occlusion.

myocardial infarct size = test: Rat acute myocardial infarction model (extension of myocardial infarct size); format: in vivo; conditions: 1 mg/kg, i.v.
Procedure: (1) Inhibitory effects of Compound A on the extension of myocardial infarct size were determined by "Rat acute myocardial infarction model" described in British Journal of Pharmacology, 114, 949-954 (1995).
(2) Inhibitory effects of Compound B [(S)-(-)-7-(2-chlorophenyl)-5-guanidinoimino-4-methyl-5,6,7,8-tetrahydroquinoline] on the extension of myocardial infarct size were determined by "Rat acute myocardial infarction model" described in British Journal of Pharmacology, 114, 949-954 (1995).

[1] = premature ventricular complex, drug in saline via femoral vein 5 minutes before coronary artery occlusion
[2] = ventricular tachycardia, drug in saline via femoral vein 5 minutes before coronary artery occlusion

With `Cc1ccnc2c1C(=NNC(=N)N)C[C@@H](c1ccccc1Cl)C2` [Compound B, (S)-(-)-7-(2-chlorophenyl)-5-guanidinoimino-4-methyl-5,6,7,8-tetrahydroquinoline] the “PVC D (duration)” value (lethal arrhythmia; [1]) was 20.9 ± 4.3 s, the “PVC N (number of PVCs)” value (lethal arrhythmia; [1]) was 4.8±2.8 time and the “inhibitory effects on lethal arrhythmia” value (lethal arrhythmia; summary in words of the arrhythmia table) was “showed inhibitory effects on lethal arrhythmia”. For the same molecule, the “VT D (duration)” value (lethal arrhythmia; [2]) was 7.2 ± 3.6 s, the “VT F (frequency)” value (lethal arrhythmia; [2]) was 3.0±0.7 time and the infarct size/area-at-risk (myocardial infarct size; Post-treatment, 1 minute before reperfusion started) was 39±3 %. The infarct size/area-at-risk (myocardial infarct size; Pre-treatment, 5 minutes before coronary occlusion) was 30±5 % t**.
